Source: ChEMBL document CHEMBL1201862, “PubChem BioAssay data set” (2004)
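A five-concentration, 48-hour dose response in 96-well plates underlies each endpoint, interpolated linearly between surrounding concentrations. GI50 marks 50% less growth.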 Activity calls are given as the source filed them. Rule as the data show it: active = GI50 up to about 1.1 µM and inactive = higher.

Tests used:
Test in all cases: NCI-60 cell line screen, 48 h
K562 = tested on: K562
RXF 393 = tested on: RXF 393
M14 = tested on: M14
T47D = tested on: T47D
RPMI-8226 = tested on: RPMI-8226
HCT-116 = tested on: HCT-116
KM12 = tested on: KM12
OVCAR-5 = tested on: OVCAR-5
SW-620 = tested on: SW-620
HL-60 = tested on: HL-60
COLO 205 = tested on: COLO 205
HOP-62 = tested on: HOP-62
SK-MEL-2 = tested on: SK-MEL-2
PC-3 = tested on: PC-3
OVCAR-3 = tested on: OVCAR-3
OVCAR-4 = tested on: OVCAR-4
NCI-H23 = tested on: NCI-H23
HCC 2998 = tested on: HCC 2998
TK-10 = tested on: TK-10
SN12C = tested on: SN12C

Measured: GI50

COc1cc(-c2nc3ccccn3c2/N=C/c2cc(Br)cc(Br)c2O)ccc1O
inactive: K562 28.6 µM | RXF 393 32.9 µM | M14 18.2 µM | T47D 23.3 µM | RPMI-8226 24.7 µM | HCT-116 18.4 µM | KM12 24.2 µM | OVCAR-5 31.4 µM | SW-620 26.4 µM | HL-60 18.2 µM | COLO 205 26.9 µM | HOP-62 21.6 µM | SK-MEL-2 22.3 µM | PC-3 22.6 µM | OVCAR-3 15.6 µM | OVCAR-4 19.4 µM | NCI-H23 24.3 µM | HCC 2998 79.6 µM | TK-10 23.9 µM | SN12C 19.5 µM

O=C(Nc1cnc(O)nc1O)Oc1ccccc1
inactive: K562 > 100 µM | RXF 393 > 100 µM | M14 > 100 µM | T47D > 100 µM | RPMI-8226 > 100 µM | HCT-116 > 100 µM | KM12 > 100 µM | OVCAR-5 > 100 µM | SW-620 > 100 µM | HL-60 14.3 µM | COLO 205 > 100 µM | HOP-62 > 100 µM | SK-MEL-2 > 100 µM | PC-3 > 100 µM | OVCAR-3 > 100 µM | OVCAR-4 > 100 µM | NCI-H23 > 100 µM | HCC 2998 > 100 µM | TK-10 > 100 µM | SN12C > 100 µM

CC(=O)OCC1OC(n2c(-c3cccs3)c3c(c(C#N)c2=S)-c2ccccc2CC3)C(OC(C)=O)C(OC(C)=O)C1OC(C)=O (centres undefined)
inactive: K562 4.37 µM | RXF 393 8.28 µM | M14 7.67 µM | T47D 5.07 µM | RPMI-8226 3.28 µM | HCT-116 7.67 µM | KM12 9.14 µM | OVCAR-5 26.5 µM | SW-620 15.5 µM | HL-60 2.64 µM | COLO 205 9.35 µM | HOP-62 11.9 µM | SK-MEL-2 5.48 µM | PC-3 9.04 µM | OVCAR-3 10.4 µM | OVCAR-4 5.32 µM | NCI-H23 19.5 µM | HCC 2998 8.73 µM | TK-10 6.19 µM | SN12C 20.2 µM

COc1cc2ccc1OCc1cccc(n1)COc1ccc(cc1OC)/C=N\CCNCC/N=C\2
inactive: K562 > 100 µM | RXF 393 > 100 µM | M14 > 100 µM | T47D 65.8 µM | RPMI-8226 > 100 µM | HCT-116 45.4 µM | OVCAR-5 > 100 µM | SW-620 > 100 µM | HL-60 > 100 µM | COLO 205 > 100 µM | HOP-62 > 100 µM | SK-MEL-2 > 100 µM | PC-3 > 100 µM | OVCAR-3 > 100 µM | OVCAR-4 > 100 µM | NCI-H23 > 100 µM | HCC 2998 > 100 µM | TK-10 > 100 µM | SN12C > 100 µM

NCCCNCCCNCCCN
inactive: K562 25.2 µM | RXF 393 > 100 µM | M14 > 100 µM | T47D 12.6 µM | RPMI-8226 16.4 µM | HCT-116 > 100 µM | KM12 > 100 µM | OVCAR-5 > 100 µM | SW-620 > 100 µM | HL-60 > 100 µM | COLO 205 > 100 µM | HOP-62 > 100 µM | SK-MEL-2 > 100 µM | PC-3 > 100 µM | OVCAR-3 > 100 µM | OVCAR-4 > 100 µM | NCI-H23 > 100 µM | HCC 2998 > 100 µM | TK-10 > 100 µM | SN12C > 100 µM

C=C(C)[C@H]1[C@@H]2OC(=O)[C@H]1[C@]1(O)C[C@H]3OC34C(=O)O[C@H]2[C@@]41C.CC(C)(O)[C@H]1[C@@H]2OC(=O)[C@H]1[C@]1(O)C[C@H]3OC34C(=O)O[C@H]2[C@@]41C (some centres undefined)
inactive: K562 > 100 µM | RXF 393 > 100 µM | M14 > 100 µM | T47D > 100 µM | RPMI-8226 > 100 µM | HCT-116 > 100 µM | KM12 > 100 µM | OVCAR-5 > 100 µM | SW-620 > 100 µM | HL-60 > 100 µM | COLO 205 > 100 µM | HOP-62 > 100 µM | SK-MEL-2 > 100 µM | PC-3 > 100 µM | OVCAR-3 > 100 µM | OVCAR-4 > 100 µM | NCI-H23 > 100 µM | HCC 2998 > 100 µM | TK-10 > 100 µM | SN12C > 100 µM

N#Cc1nc(NC(=O)c2ccccc2)sc1N
inactive: K562 > 10 µM | RXF 393 > 10 µM | M14 > 10 µM | T47D > 4.03 µM | RPMI-8226 9.82 µM | HCT-116 > 10 µM | KM12 > 10 µM | OVCAR-5 > 10 µM | SW-620 > 10 µM | HL-60 3 µM | COLO 205 > 10 µM | HOP-62 > 10 µM | SK-MEL-2 > 10 µM | PC-3 > 10 µM | OVCAR-3 > 10 µM | OVCAR-4 > 6.07 µM | NCI-H23 > 10 µM | HCC 2998 > 10 µM | TK-10 > 10 µM | SN12C > 10 µM

CCOC(=O)C1=C(C)N(Cc2ccccc2)C2(O)C(OC)CC(=O)C3C(=O)N(c4ccccc4)C(=O)C132 (centres undefined)
inactive: K562 4.43 µM | RXF 393 5.69 µM | M14 19.9 µM | T47D 4.28 µM | RPMI-8226 2.69 µM | HCT-116 6.3 µM | KM12 8.75 µM | OVCAR-5 13.8 µM | SW-620 4.93 µM | HL-60 3.93 µM | COLO 205 7.21 µM | HOP-62 6.81 µM | SK-MEL-2 7.57 µM | PC-3 7.73 µM | OVCAR-3 7.41 µM | OVCAR-4 4.84 µM | NCI-H23 15.8 µM | HCC 2998 12.4 µM | TK-10 22.4 µM | SN12C 10.6 µM

CCOC(=O)/C(C#N)=C/c1ccc2c(c1)CC1(C2)Cc2cc(CC)c(C(C)O)cc2C1 (centres undefined)
inactive: K562 4.31 µM | RXF 393 6.79 µM | M14 5.32 µM | T47D 27.9 µM | RPMI-8226 6.84 µM | HCT-116 4.27 µM | KM12 19.6 µM | OVCAR-5 33 µM | SW-620 5.38 µM | HL-60 3.03 µM | COLO 205 25.2 µM | HOP-62 14.2 µM | SK-MEL-2 7.21 µM | PC-3 10.2 µM | OVCAR-3 8.04 µM | OVCAR-4 9.59 µM | NCI-H23 13.5 µM | HCC 2998 16.3 µM | TK-10 25.5 µM | SN12C 14.2 µM

Cc1ccc(S(=O)(=O)N/N=C2\CCC3(O)CC2(C)CCC2C3CC2(C)C)cc1 (centres undefined)
inactive: K562 > 100 µM | RXF 393 52.8 µM | M14 47.9 µM | T47D 35.1 µM | RPMI-8226 > 100 µM | HCT-116 30.7 µM | KM12 35.6 µM | OVCAR-5 50.6 µM | SW-620 78 µM | HL-60 > 100 µM | COLO 205 22.5 µM | HOP-62 92.7 µM | SK-MEL-2 18.7 µM | PC-3 22 µM | OVCAR-3 37.8 µM | OVCAR-4 28.4 µM | NCI-H23 49.5 µM | HCC 2998 46.3 µM | TK-10 29.2 µM | SN12C 57.8 µM

CC(=O)c1c2c(c3ccccc3c1O)O[C@@H]1OCC[C@H]21
inactive: K562 > 100 µM | RXF 393 > 100 µM | M14 > 100 µM | T47D > 100 µM | RPMI-8226 94.6 µM | HCT-116 > 100 µM | KM12 > 100 µM | OVCAR-5 > 100 µM | SW-620 > 100 µM | HL-60 > 100 µM | COLO 205 > 100 µM | HOP-62 > 100 µM | SK-MEL-2 > 100 µM | PC-3 > 100 µM | OVCAR-3 > 100 µM | OVCAR-4 53.3 µM | NCI-H23 > 100 µM | HCC 2998 > 100 µM | TK-10 > 100 µM | SN12C > 100 µM

FC(F)(F)c1ccc(C2ON=C(c3ccccc3)N2C23CC4CC(CC(C4)C2)C3)cc1 (centres undefined)
inactive: K562 > 10 µM | RXF 393 > 10 µM | M14 > 10 µM | T47D > 10 µM | RPMI-8226 > 10 µM | HCT-116 > 10 µM | KM12 > 10 µM | OVCAR-5 > 10 µM | SW-620 > 10 µM | HL-60 > 10 µM | COLO 205 > 10 µM | HOP-62 > 10 µM | SK-MEL-2 > 10 µM | PC-3 > 10 µM | OVCAR-3 > 10 µM | OVCAR-4 > 10 µM | NCI-H23 > 10 µM | HCC 2998 > 10 µM | TK-10 > 10 µM | SN12C > 10 µM

O=C1C=CC(=O)c2c1ccc1c3ccccc3n(-c3ccccc3[N+](=O)[O-])c21
inactive: RXF 393 1.62 µM | M14 2.03 µM | T47D 1.33 µM | HCT-116 2.79 µM | KM12 8.97 µM | OVCAR-5 17.3 µM | SW-620 1.98 µM | COLO 205 2.07 µM | HOP-62 18.6 µM | SK-MEL-2 13.3 µM | PC-3 3.65 µM | OVCAR-3 2.44 µM | OVCAR-4 2.59 µM | NCI-H23 4.55 µM | HCC 2998 3.42 µM | TK-10 2.44 µM | SN12C 4.01 µM
active: K562 0.828 µM | RPMI-8226 0.71 µM | HL-60 1.06 µM
